# Reference: patent US20040259765A1, “Formulations of non-steroidal anti-inflammatory agents to treat pathologic ocular angiogenesis” (priority 2003, published 2004)
# Test system: retinal neovascularization
# Assay: rat pup model of retinopathy of prematurity (oxygen-induced retinopathy)
# Type: in vivo
# Conditions: local administration, FIG. 1
# Method: FIG. 1. […] Anecortave acetate was tested for its angiostatic efficacy in a rat pup model of retinopathy of prematurity (Penn, at al., Investigative Ophthalmology & Visual Science, “The Effect of an Angiostatic Steroid on Neovascularization in a Rat Model of Retinopathy of Prematurity,” Vol. 42(1):283-290, January 2001). Newborn rat pups were placed in an atmosphere of varying oxygen content. The rats received a single intravitreal injection of vehicle or anecortave acetate (500 μg) upon return to room air (day 14) or 2 days later (day 16). There was significant retinal neovascularization in the rats that received vehicle injections.
structure (smiles),measurement,value
"CC(=O)OCC(=O)[C@@]1(O)CC[C@H]2[C@@H]3CCC4=CC(=O)CC[C@]4(C)C3=CC[C@@]21C [Anecortave acetate, 4,9(11)-pregnadien-17α,21-diol-3,20dione-21-acetate]",preretinal neovascularization (neovascular score),inhibits
